Patent publication US20020007060A1, “Reverse hydroxamate inhibitors of matrix metalloproteinases” (priority 1998, published 2002)

Experiments:
[1] = target: T1, Recombinant truncated stromelysin (human sequence) (Homo sapiens, UniProt P08254); test: Determination of Stromelysin Inhibition; format: biochemical; details: cleavage of thiopeptide ester substrate Ac-Pro-Leu-Gly-[2-mercapto-4-methyl-pentanoyl]-Leu-Gly-OEt, DTNB read at 405 nm, 30 minute assay at ambient temperature, 50 mM MES/NaOH 6.5
T1 construct: made in house; host or cells: E. coli
Procedure: The efficacy of the compounds of this invention as matrix metalloproteinase inhibitors was determined by measuring the inhibition of stromelysin. The inhibition of stromelysin by the compounds of this invention was determined as follows: Recombinant truncated stromelysin (human sequence) produced in E. coli was prepared by expression and purification of the protein as described by Ye et al. (Biochemistry, 1992, 31, 11231-11235, which is incorporated herein by reference). The enzyme was assayed by its cleavage of the thiopeptide ester substrate Ac-Pro-Leu-Gly-[2-mercapto-4-methyl-pentanoyl]-Leu-Gly-OEt as described by Weingarten and Feder (Anal. Biochem., 1985, 147, 437-440 (1985), which is incorporated herein by reference) as a substrate of vertebrate collagenase. The reported conditions were modified to allow assays to be carried out in a microtiter plate. Upon hydrolysis of the thioester bond, the released thiol group reacted rapidly with 5,5′-dithio-bis(2-nitrobenzoic acid) (DTNB) to produce a yellow color which was measured by a microtiter plate reader set at 405 nm. The rates of cleavage of the substrate by stromelysin in the presence or absence of inhibitors were measured in a 30 minute assay at ambient temperature. Solutions of the compounds in DMSO were prepared, and these were diluted at various concentrations into the assay buffer (50 mM MES/NaOH 6.5 with 10 mM CaCl2 and 0.2% Pluronic F-68), which was also used for dilution of the enzyme and substrate. The potency of the compounds [IC50] was calculated from the inhibition/inhibitor concentration data.

T1 sequence (P08254 100-272 limits assumed): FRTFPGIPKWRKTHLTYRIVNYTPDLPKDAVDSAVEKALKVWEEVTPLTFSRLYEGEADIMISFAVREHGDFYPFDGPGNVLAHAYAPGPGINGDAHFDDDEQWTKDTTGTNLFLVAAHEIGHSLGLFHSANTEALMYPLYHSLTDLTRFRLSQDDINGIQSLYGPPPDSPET

`CN1C(=O)N(CC(COc2ccc(-c3ccc(C#N)cc3)cc2)N(O)C=O)C(=O)C1(C)C` (racemic) [Example 4, (±)-N-[1-[[(4′-cyano-[1,1′-biphenyl]-4-yl)oxy]methyl]-2-(3,4,4-trimethyl-2,5-dioxoimidazolidin-1-yl)ethyl]-N-hydroxyformamide] showed a melting point of 65 to 67 °C and an IC50 [1] of 9.1 nM.

Compound `CC(C)CC(COc1ccc(-c2ccc(C#N)cc2)cc1)N(O)C=O` (racemic) [Example 7, (±)-N-[1-[[(4′-cyano-[1,1′-biphenyl]-4-yl)oxy]methyl]-3-methylbutyl]-N-hydroxyformamide] has a melting point of 112 to 113 °C and an IC50 [1] of 120 nM.

In the case of `O=CN(O)C(CO)CS(=O)(=O)c1ccc(-c2ccc(OC(F)(F)F)cc2)cc1` (racemic) [Example 151, (±)-N-hydroxy-N-[1-(hydroxymethyl)-2-[[4′-(trifluoromethoxy)[1,1′-biphenyl]-4-yl]sulfonyl]ethyl]formamide], the melting point is reported as 167 to 168 °C.

Compound `CC1(C)CC(=O)N(CC(CS(=O)(=O)c2ccc(-c3ccc(C(F)(F)F)cc3)cc2)N(O)C=O)C(=O)C1` (racemic) [Example 124, (±)-N-[1-[(4,4-dimethyl-2,6-dioxo-1-piperidinyl)methyl]-2-[[4′-(trifluoromethyl)[1,1′-biphenyl]-4-yl]sulfonyl]ethyl]-N-hydroxyformamide] has a melting point of 185.6 to 187.3 °C.

In the case of `CC(CS(=O)(=O)c1ccc(Oc2ccc(Cl)cc2)cc1)N(O)C=O` (stereo not drawn) [Example 74, N-[1-[[[4-(4-chlorophenoxy)phenyl]sulfonyl]methyl]ethyl]-N-hydroxyformamide], the melting point is reported as 144 to 145 °C.

For `CN1C(=O)N(CCC(COc2ccc(-c3ccc(C#N)cc3)cc2)N(O)C=O)C(=O)C1(C)C` (racemic) [Example 5, (±)-N-[1-[[(4′-cyano-[1,1′-biphenyl]-4-yl)oxy]methyl]-3-(3,4,4-trimethyl-2,5-dioxoimidazolidiny-1-yl)propyl]-N-hydroxyformamide], the melting point was 68 to 70 °C and the IC50 [1] was 17 nM.
